Test results from PubChem BioAssay AID1259407 (Chemical Carcinogenesis Research Information System (CCRIS), 2018).
Activity calls are given as the source filed them. How the calls were made is not given here.

Tested on: CCRIS mutagenicity, Ames/micronucleus/aberration tests
Test: CCRIS mutagenicity studies

Measured: mutagenic call

CC(C)O
inactive: Test System: AMES SALMONELLA TYPHIMURIUM, Strain/Indicator: TA97, Metabolic Activation: HAMSTER, LIVER, S-9, AROCLOR 1254 (10 OR 30%), Method: PREINCUBATION inactive; negative | Test System: AMES SALMONELLA TYPHIMURIUM, Strain/Indicator: TA97, Metabolic Activation: NONE, Method: PREINCUBATION inactive; negative | Test System: AMES SALMONELLA TYPHIMURIUM, Strain/Indicator: TA97, Metabolic Activation: RAT, LIVER, S-9, AROCLOR 1254 (10 OR 30%), Method: PREINCUBATION inactive; negative | Test System: AMES SALMONELLA TYPHIMURIUM, Strain/Indicator: TA98, Metabolic Activation: HAMSTER, LIVER, S-9, AROCLOR 1254 (10 OR 30%), Method: PREINCUBATION inactive; negative | Test System: AMES SALMONELLA TYPHIMURIUM, Strain/Indicator: TA98, Metabolic Activation: NONE, Method: PREINCUBATION inactive; negative | Test System: AMES SALMONELLA TYPHIMURIUM, Strain/Indicator: TA98, Metabolic Activation: RAT, LIVER, S-9, AROCLOR 1254 (10 OR 30%), Method: PREINCUBATION inactive; negative | Test System: AMES SALMONELLA TYPHIMURIUM, Strain/Indicator: TA98, Metabolic Activation: RAT, LIVER, S-9, KC 500, Method: PREINCUBATION inactive; negative | Test System: AMES SALMONELLA TYPHIMURIUM, Strain/Indicator: TA98, Metabolic Activation: RAT, LIVER, S-9, PHENOBARBITAL AND BETA-NAPHTHOFLAVONE, Method: PREINCUBATION inactive; negative | Test System: AMES SALMONELLA TYPHIMURIUM, Strain/Indicator: TA100, Metabolic Activation: HAMSTER, LIVER, S-9, AROCLOR 1254 (10 OR 30%), Method: PREINCUBATION inactive; negative | Test System: AMES SALMONELLA TYPHIMURIUM, Strain/Indicator: TA100, Metabolic Activation: NONE, Method: PREINCUBATION inactive; negative | Test System: AMES SALMONELLA TYPHIMURIUM, Strain/Indicator: TA100, Metabolic Activation: RAT, LIVER, S-9, AROCLOR 1254 (10 OR 30%), Method: PREINCUBATION inactive; negative | Test System: AMES SALMONELLA TYPHIMURIUM, Strain/Indicator: TA100, Metabolic Activation: RAT, LIVER, S-9, KC 500, Method: PREINCUBATION inactive; negative | Test System: AMES SALMONELLA TYPHIMURIUM, Strain/Indicator: TA100, Metabolic Activation: RAT, LIVER, S-9, PHENOBARBITAL AND BETA-NAPHTHOFLAVONE, Method: PREINCUBATION inactive; negative | Test System: AMES SALMONELLA TYPHIMURIUM, Strain/Indicator: TA102, Metabolic Activation: NONE, Method: PREINCUBATION inactive; negative | Test System: AMES SALMONELLA TYPHIMURIUM, Strain/Indicator: TA102, Metabolic Activation: RAT, LIVER, S-9, PHENOBARBITAL AND BETA-NAPHTHOFLAVONE, Method: PREINCUBATION inactive; negative | Test System: AMES SALMONELLA TYPHIMURIUM, Strain/Indicator: TA104, Metabolic Activation: NONE, Method: PREINCUBATION inactive; negative | Test System: AMES SALMONELLA TYPHIMURIUM, Strain/Indicator: TA104, Metabolic Activation: RAT, LIVER, S-9, PHENOBARBITAL AND BETA-NAPHTHOFLAVONE, Method: PREINCUBATION inactive; negative | Test System: AMES SALMONELLA TYPHIMURIUM, Strain/Indicator: TA1535, Metabolic Activation: HAMSTER, LIVER, S-9, AROCLOR 1254 (10 OR 30%), Method: PREINCUBATION inactive; negative | Test System: AMES SALMONELLA TYPHIMURIUM, Strain/Indicator: TA1535, Metabolic Activation: NONE, Method: PREINCUBATION inactive; negative | Test System: AMES SALMONELLA TYPHIMURIUM, Strain/Indicator: TA1535, Metabolic Activation: RAT, LIVER, S-9, AROCLOR 1254 (10 OR 30%), Method: PREINCUBATION inactive; negative | Test System: AMES SALMONELLA TYPHIMURIUM, Strain/Indicator: TA1535, Metabolic Activation: RAT, LIVER, S-9, KC 500, Method: PREINCUBATION inactive; negative | Test System: AMES SALMONELLA TYPHIMURIUM, Strain/Indicator: TA1535, Metabolic Activation: RAT, LIVER, S-9, PHENOBARBITAL AND BETA-NAPHTHOFLAVONE, Method: PREINCUBATION inactive; negative | Test System: AMES SALMONELLA TYPHIMURIUM, Strain/Indicator: TA1537, Metabolic Activation: HAMSTER, LIVER, S-9, AROCLOR 1254 (30%), Method: PREINCUBATION inactive; negative | Test System: AMES SALMONELLA TYPHIMURIUM, Strain/Indicator: TA1537, Metabolic Activation: NONE, Method: PREINCUBATION inactive; negative | Test System: AMES SALMONELLA TYPHIMURIUM, Strain/Indicator: TA1537, Metabolic Activation: RAT, LIVER, S-9, AROCLOR 1254 (30%), Method: PREINCUBATION inactive; negative | Test System: AMES SALMONELLA TYPHIMURIUM, Strain/Indicator: TA1537, Metabolic Activation: RAT, LIVER, S-9, KC 500, Method: PREINCUBATION inactive; negative | Test System: AMES SALMONELLA TYPHIMURIUM, Strain/Indicator: TA1537, Metabolic Activation: RAT, LIVER, S-9, PHENOBARBITAL AND BETA-NAPHTHOFLAVONE, Method: PREINCUBATION inactive; negative | Test System: AMES SALMONELLA TYPHIMURIUM, Strain/Indicator: TA1538, Metabolic Activation: NONE, Method: PREINCUBATION inactive; negative | Test System: AMES SALMONELLA TYPHIMURIUM, Strain/Indicator: TA1538, Metabolic Activation: RAT, LIVER, S-9, KC 500, Method: PREINCUBATION inactive; negative | Test System: CHINESE HAMSTER OVARY, Strain/Indicator: CHO-K1-BH4 (HGPRT), Metabolic Activation: NONE inactive; negative | Test System: CHINESE HAMSTER OVARY, Strain/Indicator: CHO-K1-BH4 (HGPRT), Metabolic Activation: RAT, LIVER, S-9, AROCLOR 1254 inactive; negative | Test System: E. COLI, Strain/Indicator: WP2UVRA/PKM101, Metabolic Activation: NONE, Method: PREINCUBATION inactive; negative | Test System: E. COLI, Strain/Indicator: WP2UVRA/PKM101, Metabolic Activation: RAT, LIVER, S-9, PHENOBARBITAL AND BETA-NAPHTHOFLAVONE, Method: PREINCUBATION inactive; negative | Test System: E. COLI, Strain/Indicator: WP2 UVRA, Metabolic Activation: NONE, Method: PREINCUBATION inactive; negative | Test System: E. COLI, Strain/Indicator: WP2UVRA, Metabolic Activation: NONE, Method: PREINCUBATION inactive; negative | Test System: E. COLI, Strain/Indicator: WP2 UVRA, Metabolic Activation: RAT, LIVER, S-9, KC 500, Method: PREINCUBATION inactive; negative | Test System: E. COLI, Strain/Indicator: WP2UVRA, Metabolic Activation: RAT, LIVER, S-9, PHENOBARBITAL AND BETA-NAPHTHOFLAVONE, Method: PREINCUBATION inactive; negative
